# Assay results: US8791264B2 (Purdue Pharma L.P., priority 2006, dated 2014)
# Columns and labels:
# [1] = molecular target: T1, N-type calcium channel (NTCC) (Homo sapiens, UniProt Q00975); assay: FLIPR calcium mobilization assay for N-type calcium channel; format: cell-based; conditions: calcium mobilization in vitro assay; differentiated IMR32 cells
# T1 construct: host or cells: IMR32 cells differentiated with dibutyryl cAMP and bromodeoxyuridine
# Summary of the method: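 Differentiated IMR32 cells (8 days, dibutyryl cAMP and BrdU) loaded with 3 μM Fluo-4 during 90 mM KCl pre-stimulation, with compound at about 846 pM to 17 μM plus 5 μM nitrendipine. After washes in compound, FLIPR read basal fluorescence 315 s, then 45 s after KCl addition (final 90 mM).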
# [2] = molecular target: T2, recombinant rat L-type calcium channel (LTCC) subunits (α1c, α2δ, and β1) (Rattus norvegicus, UniProt P22002); assay: FLIPR calcium mobilization assay for L-type calcium channel; format: cell-based; conditions: calcium mobilization in vitro assay; HEK293 cells expressing rat LTCC
# T2 construct: expressed in transfected cells
# Protocol: Recombinant human embryonal kidney cells (HEK293, ATCC) stably transfected with either N-type calcium channel (NTCC) subunits (α1b, α2δ, and ⊖3) or L-type calcium channel (LTCC) subunits (α1, α2δ, and β1) were routinely cultured in growth medium consisting of Dulbecco's Modified Eagles Medium containing 10% FBS, 100 U/mL penicillin, 100 μg/mL streptomycin, 4 mM L-glutamine, 500 μg/mL geneticin (G418), 20 μg/mL Blasticidin S (InVivogen, San Diego, Calif.) and 500 μg/mL zeocin (InVivogen).
# FLIPR Calcium Mobilization Assay for L-Type Calcium Channel.
# One day prior to performing this assay, HEK293 cells stably expressing recombinant rat L-type calcium channel (LTCC) subunits (α1c, α2δ, and β1) were trypsinized, then seeded on poly-D-lysine-coated 96-well clear-bottom black plates (Becton Dickinson, Franklin Lakes, N.J.) at 75,000 cells/well. On the day of the assay, the plates were washed with LTCC wash buffer (127 mM NaCl, 2 mM MgCl2, 700 μM NaH2PO4, 5 mM CaCl2, 5 mM NaHCO3, 8 mM HEPES, 10 mM glucose, pH 7.4), then loaded with 0.1 mL of LTCC wash buffer containing Fluo-4 (3 μM final concentration, Molecular Probes, Eugene, Oreg.). After 1 hour, the cells were washed with 0.1 mL LTCC wash buffer and resuspended in 0.05 mL LTCC assay buffer (same composition as LTCC wash buffer). Plates were then transferred to a FLIPR^96 for assay. The FLIPR measured basal Fluo-4 fluorescence for 15 seconds, then is added 0.05 mL of each compound tested diluted in LTCC assay buffer at final concentrations ranging from about 846 pM to about 17 μM. Fluo-4 fluorescence was then measured for 5 minutes. 0.1 mL KCl agonist dissolved in LTCC assay buffer was then added to the cells to produce a final concentration of 90 mM KCl, and fluorescence was measured for another 45 seconds. Data were collected over the entire time course and analyzed using Excel, Graph Pad Prism, or an in-house regression analysis software.
# T1 sequence (Q00975 whole entry): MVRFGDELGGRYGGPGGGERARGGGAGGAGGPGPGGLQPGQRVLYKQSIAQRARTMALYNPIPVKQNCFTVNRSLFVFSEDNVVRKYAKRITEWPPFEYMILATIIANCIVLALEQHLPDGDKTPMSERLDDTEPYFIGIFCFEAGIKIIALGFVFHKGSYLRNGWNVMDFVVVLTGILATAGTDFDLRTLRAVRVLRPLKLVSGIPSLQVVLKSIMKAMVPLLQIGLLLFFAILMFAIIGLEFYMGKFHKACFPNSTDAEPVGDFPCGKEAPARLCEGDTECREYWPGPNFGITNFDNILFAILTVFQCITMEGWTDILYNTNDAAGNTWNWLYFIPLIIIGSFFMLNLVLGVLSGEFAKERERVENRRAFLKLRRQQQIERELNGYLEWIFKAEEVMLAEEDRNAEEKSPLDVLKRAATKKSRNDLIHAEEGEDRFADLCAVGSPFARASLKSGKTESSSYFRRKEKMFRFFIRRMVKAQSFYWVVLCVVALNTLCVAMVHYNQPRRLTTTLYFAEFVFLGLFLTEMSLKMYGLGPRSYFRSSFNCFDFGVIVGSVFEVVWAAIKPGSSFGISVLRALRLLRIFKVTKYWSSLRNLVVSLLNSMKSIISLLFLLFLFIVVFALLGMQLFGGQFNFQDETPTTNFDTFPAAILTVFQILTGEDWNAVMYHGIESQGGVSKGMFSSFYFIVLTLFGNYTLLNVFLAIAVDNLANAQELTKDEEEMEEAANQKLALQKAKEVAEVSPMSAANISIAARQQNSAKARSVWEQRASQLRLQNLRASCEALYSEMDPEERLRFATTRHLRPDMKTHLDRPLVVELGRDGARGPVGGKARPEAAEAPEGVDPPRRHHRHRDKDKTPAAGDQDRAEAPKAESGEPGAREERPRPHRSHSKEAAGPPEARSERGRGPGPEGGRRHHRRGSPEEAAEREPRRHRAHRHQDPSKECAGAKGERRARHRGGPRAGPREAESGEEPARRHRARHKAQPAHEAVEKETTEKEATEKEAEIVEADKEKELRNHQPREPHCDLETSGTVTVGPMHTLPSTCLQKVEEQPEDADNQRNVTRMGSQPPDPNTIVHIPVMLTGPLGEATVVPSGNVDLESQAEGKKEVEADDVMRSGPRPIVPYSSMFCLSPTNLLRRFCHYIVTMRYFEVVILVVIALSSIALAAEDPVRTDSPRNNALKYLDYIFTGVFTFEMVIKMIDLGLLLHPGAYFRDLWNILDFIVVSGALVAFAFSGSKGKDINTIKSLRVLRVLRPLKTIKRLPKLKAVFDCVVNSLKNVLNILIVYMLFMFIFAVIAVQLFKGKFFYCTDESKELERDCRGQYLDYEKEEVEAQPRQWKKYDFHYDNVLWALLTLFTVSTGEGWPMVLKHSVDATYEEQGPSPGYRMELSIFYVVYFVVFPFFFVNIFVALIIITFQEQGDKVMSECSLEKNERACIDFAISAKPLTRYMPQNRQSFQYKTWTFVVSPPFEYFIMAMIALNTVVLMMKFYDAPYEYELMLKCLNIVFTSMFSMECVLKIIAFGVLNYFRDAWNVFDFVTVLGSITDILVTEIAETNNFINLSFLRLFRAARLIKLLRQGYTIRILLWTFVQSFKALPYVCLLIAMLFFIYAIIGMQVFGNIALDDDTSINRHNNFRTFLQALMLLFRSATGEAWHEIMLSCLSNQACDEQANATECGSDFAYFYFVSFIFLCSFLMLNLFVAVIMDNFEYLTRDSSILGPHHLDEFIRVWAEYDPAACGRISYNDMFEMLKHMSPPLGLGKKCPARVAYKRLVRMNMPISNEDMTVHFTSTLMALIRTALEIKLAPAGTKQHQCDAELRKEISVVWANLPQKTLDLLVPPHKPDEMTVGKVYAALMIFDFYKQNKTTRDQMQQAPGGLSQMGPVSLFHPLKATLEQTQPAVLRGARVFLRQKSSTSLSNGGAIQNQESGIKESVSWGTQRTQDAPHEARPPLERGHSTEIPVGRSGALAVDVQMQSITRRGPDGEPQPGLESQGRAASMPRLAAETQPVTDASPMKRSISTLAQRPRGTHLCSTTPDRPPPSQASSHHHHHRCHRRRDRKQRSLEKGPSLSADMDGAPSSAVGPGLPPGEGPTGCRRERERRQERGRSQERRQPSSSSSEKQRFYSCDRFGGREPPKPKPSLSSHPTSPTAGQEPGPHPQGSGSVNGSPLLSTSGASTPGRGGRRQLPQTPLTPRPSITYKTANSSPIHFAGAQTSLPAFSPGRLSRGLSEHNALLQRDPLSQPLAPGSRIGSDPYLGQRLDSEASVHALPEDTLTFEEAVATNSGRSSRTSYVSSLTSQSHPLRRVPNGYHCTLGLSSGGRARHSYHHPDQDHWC
# T1 sequence (P54289 25-956 partner limits assumed): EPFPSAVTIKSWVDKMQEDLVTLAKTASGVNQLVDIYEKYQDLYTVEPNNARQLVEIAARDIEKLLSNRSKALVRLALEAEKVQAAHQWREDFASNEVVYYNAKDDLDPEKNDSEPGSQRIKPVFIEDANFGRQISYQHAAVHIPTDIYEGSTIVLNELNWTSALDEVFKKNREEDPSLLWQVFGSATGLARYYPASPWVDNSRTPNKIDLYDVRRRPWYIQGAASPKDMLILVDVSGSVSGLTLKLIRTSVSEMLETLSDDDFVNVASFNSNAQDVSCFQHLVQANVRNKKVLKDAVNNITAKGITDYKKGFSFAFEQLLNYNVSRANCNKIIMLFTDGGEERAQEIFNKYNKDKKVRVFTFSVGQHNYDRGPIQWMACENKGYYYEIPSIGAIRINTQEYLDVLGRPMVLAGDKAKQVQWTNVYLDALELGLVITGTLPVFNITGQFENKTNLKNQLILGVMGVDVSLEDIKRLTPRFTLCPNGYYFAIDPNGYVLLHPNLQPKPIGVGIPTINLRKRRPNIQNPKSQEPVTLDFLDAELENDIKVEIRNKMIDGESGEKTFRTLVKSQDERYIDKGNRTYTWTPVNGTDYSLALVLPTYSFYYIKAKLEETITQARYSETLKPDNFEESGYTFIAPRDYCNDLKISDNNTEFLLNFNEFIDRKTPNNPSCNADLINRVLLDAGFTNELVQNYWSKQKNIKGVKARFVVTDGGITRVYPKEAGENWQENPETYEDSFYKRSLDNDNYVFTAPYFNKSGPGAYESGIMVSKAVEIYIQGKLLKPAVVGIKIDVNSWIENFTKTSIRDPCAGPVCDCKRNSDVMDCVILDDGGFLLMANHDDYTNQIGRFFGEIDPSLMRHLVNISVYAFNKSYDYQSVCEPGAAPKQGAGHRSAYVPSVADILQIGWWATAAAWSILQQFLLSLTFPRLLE
# T1 sequence (P54289 957-1103 partner limits assumed): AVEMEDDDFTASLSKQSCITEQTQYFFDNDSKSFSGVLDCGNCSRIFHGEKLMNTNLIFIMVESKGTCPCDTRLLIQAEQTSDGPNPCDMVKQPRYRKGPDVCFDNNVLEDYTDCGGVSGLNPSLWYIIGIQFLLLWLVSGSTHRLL
# T1 sequence (P54284 whole entry partner): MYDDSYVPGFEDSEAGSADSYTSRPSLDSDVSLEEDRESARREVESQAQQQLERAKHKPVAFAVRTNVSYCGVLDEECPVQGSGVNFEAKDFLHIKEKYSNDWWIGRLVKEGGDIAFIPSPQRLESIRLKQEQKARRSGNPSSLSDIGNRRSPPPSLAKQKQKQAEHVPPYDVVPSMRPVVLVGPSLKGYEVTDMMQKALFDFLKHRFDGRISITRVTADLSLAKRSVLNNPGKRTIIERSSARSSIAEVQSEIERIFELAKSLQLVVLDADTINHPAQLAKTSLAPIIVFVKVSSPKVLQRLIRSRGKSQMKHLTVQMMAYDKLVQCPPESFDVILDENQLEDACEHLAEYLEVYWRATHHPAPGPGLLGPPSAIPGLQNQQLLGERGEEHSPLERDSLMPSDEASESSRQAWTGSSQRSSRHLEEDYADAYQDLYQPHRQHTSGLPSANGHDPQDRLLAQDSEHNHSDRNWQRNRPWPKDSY
IC50 [1],IC50 [2],Structure (SMILES)
0.72 µM,> 20 µM,"O=C(CN1CCC(N(C2CC2)S(=O)(=O)c2cccc(C(F)(F)F)c2)CC1)Nc1ccc(C(F)(F)F)cc1 [Compound 55, 2-{4-[Cyclopropyl-(3-trifluoromethylbenzenesulfonyl)amino]-piperidin-1-yl}-N-(4-trifluoromethylphenyl)acetamide]"
0.76 µM,> 20 µM,CC(C)(C)c1ccc(NC(=O)CN2CCC(N(C3CC3)S(=O)(=O)c3cccc(C(F)(F)F)c3)CC2)cc1 [Compound 56]
0.53 µM,> 20 µM,"O=C(CN1CCC(N(C2CC2)S(=O)(=O)c2cccc(C(F)(F)F)c2)CC1)Nc1ccccc1 [Compound 57, 2-{4-[Cyclopropyl-(3-trifluoromethylbenzenesulfonyl)-amino]-piperidin-1-yl}-N-phenyl-acetamide]"
0.31 µM,5.92 µM,"Cc1cccc(C)c1NC(=O)CN1CCC(N(C2CC2)S(=O)(=O)c2cccc(C(F)(F)F)c2)CC1 [Compound 58, 2-{4-[Cyclopropyl-(3-trifluoromethylbenzenesulfonyl)-amino]-piperidin-1-yl}-N-(2,6-dimethylphenyl)acetamide]"
0.42 µM,10 to 20 µM,"CC(C)c1ccc(NC(=O)CN2CCC(N(C3CC3)S(=O)(=O)c3cccc(C(F)(F)F)c3)CC2)cc1 [Compound 59, 2-{4-[Cyclopropyl-(3-trifluoromethylbenzenesulfonyl)-amino]-piperidin-1-yl}-N-(4-isopropylphenyl)acetamide]"
0.99 µM,> 20 µM,"CN(C1CCN(CC(=O)Nc2ccc(C(F)(F)F)cc2)CC1)S(=O)(=O)c1cccc(C(F)(F)F)c1 [Compound 60, 2-{4-[Methyl-(3-trifluoromethylbenzenesulfonyl)-amino]-piperidin-1-yl}-N-(4-trifluoromethylphenyl)acetamide]"
0.66 µM,> 20 µM,"O=C(CN1CCC(N(C2CC2)S(=O)(=O)c2cccc(C(F)(F)F)c2)CC1)Nc1cc(C(F)(F)F)cc(C(F)(F)F)c1 [Compound 63, N-(3,5-Bis-trifluoromethylphenyl)-2-{4-[cyclopropyl-(3-trifluoromethylbenzenesulfonyl)amino]-piperidin-1-yl}-acetamide]"
0.22 µM,> 20 µM,"O=C(CN1CCC(N(C2CC2)S(=O)(=O)c2cccc(C(F)(F)F)c2)CC1)NCc1cc(C(F)(F)F)cc(C(F)(F)F)c1 [Compound 64, N-(3,5-Bis-trifluoromethylbenzyl)-2-{4-[cyclopropyl-(3-trifluoromethylbenzenesulfonyl)amino]-piperidin-1-yl}-acetamide]"
0.92 µM,> 20 µM,"CCOc1cc(F)ccc1NC(=O)CN1CCC(N(C2CC2)S(=O)(=O)c2cccc(C(F)(F)F)c2)CC1 [Compound 70, 2-{4-[Cyclopropyl-(3-trifluoromethylbenzenesulfonyl)amino]-piperidin-1-yl}-N-(2-ethoxy-4-fluorophenyl)-acetamide]"
0.61 µM,> 20 µM,"O=C(CN1CCC(N(C2CC2)S(=O)(=O)c2cccc(C(F)(F)F)c2)CC1)Nc1ccc(F)c(C(F)(F)F)c1 [Compound 71, 2-{4-[Cyclopropyl-(3-trifluoromethylbenzenesulfonyl)amino]-piperidin-1-yl}-N-(4-fluoro-3-trifluoromethylphenyl)-acetamide]"
0.61 µM,> 20 µM,"O=C(CN1CCC(N(C2CC2)S(=O)(=O)c2cccc(C(F)(F)F)c2)CC1)Nc1cc(F)cc(C(F)(F)F)c1 [Compound 73, 2-{4-[Cyclopropyl-(3-trifluoromethylbenzenesulfonyl)amino]-piperidin-1-yl}-N-(3-fluoro-5-trifluoromethylphenyl)-acetamide]"
0.37 µM,6.6 µM,"O=C(CN1CCC(N(C2CC2)S(=O)(=O)c2cccc(C(F)(F)F)c2)CC1)Nc1cc(F)cc(F)c1 [Compound 74, 2-{4-[Cyclopropyl-(3-trifluoromethylbenzenesulfonyl)amino]-piperidin-1-yl}-N-(3,5-difluorophenyl)-acetamide]"
0.78 µM,> 20 µM,"O=C(CN1CCC(N(C2CC2)S(=O)(=O)c2cccc(C(F)(F)F)c2)CC1)Nc1ccc(C(F)(F)F)cc1F [Compound 75, 2-{4-[Cyclopropyl-(3-trifluoromethylbenzenesulfonyl)amino]-piperidin-1-yl}-N-(2-fluoro-4-trifluoromethylphenyl)-acetamide]"
0.61 µM,> 20 µM,"O=C(CN1CCC(N(C2CC2)S(=O)(=O)c2cccc(C(F)(F)F)c2)CC1)Nc1cncc(F)c1 [Compound 78, 2-{4-[Cyclopropyl-(3-trifluoromethylbenzenesulfonyl)amino]-piperidin-1-yl}-N-(5-fluoro-pyridin-3-yl)-acetamide]"
0.86 µM,> 20 µM,"O=C(CN1CCC(N(C2CC2)S(=O)(=O)c2cccc(C(F)(F)F)c2)CC1)Nc1cc(Cl)cc(Cl)c1 [Compound 79, 2-{4-[Cyclopropyl-(3-trifluoromethylbenzenesulfonyl)amino]-piperidin-1-yl}-N-(3,5-dichlorophenyl)-acetamide]"
0.5 µM,> 20 µM,"Cc1cc(C)cc(NC(=O)CN2CCC(N(C3CC3)S(=O)(=O)c3cccc(C(F)(F)F)c3)CC2)c1 [Compound 80, 2-{4-[Cyclopropyl-(3-trifluoromethylbenzenesulfonyl)amino]-piperidin-1-yl}-N-(3,5-dimethylphenyl)-acetamide]"
0.36 µM,> 20 µM,"N#Cc1cc(F)cc(NC(=O)CN2CCC(N(C3CC3)S(=O)(=O)c3cccc(C(F)(F)F)c3)CC2)c1 [Compound 81, N-(3-Cyano-5-fluorophenyl)-2-{4-[cyclopropyl-(3-trifluoromethyl-benzenesulfonyl)amino]-piperidin-1-yl}-acetamide]"
0.32 µM,> 20 µM,"CC(C)N(C1CCN(CC(=O)N(c2ccc(F)cc2)c2ccc(F)cc2)CC1)S(=O)(=O)c1cccc(C(F)(F)F)c1 [Compound 84, N,N-Bis-(4-fluorophenyl)-2-{4-[isopropyl-(3-trifluoromethyl-benzenesulfonyl)amino]-piperidin-1-yl}-acetamide]"
0.3 µM,> 20 µM,"CC(C)C[C@H](NCc1ccccc1)C(=O)N1CCC(N(C(C)C)S(=O)(=O)c2cccc(C(F)(F)F)c2)CC1 [Compound 88b, (S)—N-[1-(2-Benzylamino-4-methylpentanoyl)-piperidin-4-yl]-N-isopropyl-3-trifluoromethylbenzenesulfonamide]"
0.62 µM,7.08 µM,"CC(C)C[C@H](NC1CCCC1)C(=O)N1CCC(N(C(C)C)S(=O)(=O)c2cccc(C(F)(F)F)c2)CC1 [Compound 88c, (S)—N-[1-(2-Cyclopentylamino-4-methyl-pentanoyl)-piperidin-4-yl]-N-isopropyl-3-trifluoromethyl-benzenesulfonamide]"
0.1 µM,3.58 µM,"CC(C)N(C1CCN(C(=O)[C@H](Cc2ccccc2)NCC2CCCCC2)CC1)S(=O)(=O)c1cccc(C(F)(F)F)c1 [Compound 88d, (S)—N-{1-[2-(Cyclohexylmethyl-amino)-3-phenyl-propionyl]-piperidin-4-yl}-N-isopropyl-3-trifluoromethyl-benzenesulfonamide]"
0.56 µM,10 to 20 µM,"CC(C)N(C1CCN(C(=O)CNCc2ccccc2)CC1)S(=O)(=O)c1cccc(C(F)(F)F)c1 [Compound 93, N-[1-(2-Benzylaminoacetyl)-piperidin-4-yl]-N-isopropyl-3-trifluoromethylbenzenesulfonamide]"
0.7 µM,10 to 20 µM,"COc1ccc(CNCC(=O)N2CCC(N(C(C)C)S(=O)(=O)c3cccc(C(F)(F)F)c3)CC2)cc1 [Compound 94, N-Isopropyl-N-{1-[2-(4-methoxy-benzylamino)acetyl]-piperidin-4-yl}-3-trifluoromethylbenzenesulfonamide]"
0.82 µM,4.41 µM,"CCC(C(=O)N1CCC(N(C(C)C)S(=O)(=O)c2cccc(C(F)(F)F)c2)CC1)N(C)Cc1ccccc1 (centres unmarked) [Compound 96, N-{1-[2-(Benzyl-methyl-amino)butyryl]-piperidin-4-yl}-N-isopropyl-3-trifluoromethylbenzenesulfonamide]"
0.35 µM,> 20 µM,"COc1ccc(CNCC(=O)N2CCC(N(C3CC3)S(=O)(=O)c3cccc(C(F)(F)F)c3)CC2)cc1 [Compound 99, N-Cyclopropyl-N-{1-[2-(4-methoxybenzylamino)acetyl]-piperidin-4-yl}-3-trifluoromethylbenzenesulfonamide]"
